Measured values published in patent US9955692B2, “Pyrazoles for controlling invertebrate pests” (BASF SE, priority 2014, dated 2018).

Experiments:
Assay type in all cases: in vivo
[1] = test system: Green peach aphid (Myzus persicae); experiment: Green peach aphid spray test on bell pepper plants; details: 120 h, aphid mortality determined after 5 days, read-out: mortality in comparison with untreated controls
Experimental: (§1) The active compounds were formulated in cyclohexanone as a 10,000 ppm solution supplied in 1.3 ml ABgene® tubes. These tubes were inserted into an automated electrostatic sprayer equipped with an atomizing nozzle and they served as stock solutions for which lower dilutions were made in 1:1 (vol:vol) water:aceton. A nonionic surfactant (Kinetic®) was included in the solution at a volume of 0.01% (v/v).
Bell pepper plants at the first true-leaf stage were infested prior to treatment by placing heavily infested leaves from the main colony on top of the treatment plants. Aphids were allowed to transfer overnight to accomplish an infestation of 30-50 aphids per plant and the host leaves were removed. The infested plants were then sprayed by an automated electrostatic plant sprayer equipped with an atomizing spray nozzle. The plants were dried in the sprayer fume hood, removed, and then maintained in a growth room under fluorescent lighting in a 24 hour photoperiod at 25° C. and 20-40% relative humidity. Aphid mortality on the treated plants, relative to mortality on untreated control plants, was determined after 5 days.

[2] = test system: Silverleaf whitefly (Bemisia argentifolii, adult); experiment: Silverleaf whitefly test on sprayed cotton plants; details: 72 h, mortality assessed 3 days after treatment, read-out: mortality in comparison with untreated controls
Experimental: as §1
Cotton plants at the cotyledon stage (one plant per pot) were sprayed by an automated electrostatic plant sprayer equipped with an atomizing spray nozzle. The plants were dried in the sprayer fume hood and then removed from the sprayer. Each pot was placed into a plastic cup and 10 to 12 whitefly adults (approximately 3-5 days […]) were introduced. The insects were collected using an aspirator and 0.6 cm, nontoxic Tygon® tubing (R-3603) connected to a barrier pipette tip. The tip, containing the collected insects, was then gently inserted into the soil containing the treated plant, allowing insects to crawl out of the tip to reach the foliage for feeding. Cups were covered with a reusable screened lid (150-micron mesh polyester screen PeCap from Tetko, Inc.). […] Mortality was assessed 3 days after treatment, compared to untreated control plants.

[3] = test system: Cowpea aphid (Aphis craccivora); experiment: Cowpea aphid spray test on potted cowpea plants; details: population reduction assessed after 24, 72 and 120 hours, read-out: mortality in comparison with untreated controls
Experimental: If not otherwise specified the test solutions were prepared as follows:
The active compound was dissolved at the desired concentration in a mixture of 1:1 (vol:vol) distilled water:aceton. The test solution was prepared at the day of use and in general at concentrations of ppm (wt/vol).
Potted cowpea plants colonized with 100-150 aphids of various stages were sprayed after the pest population had been recorded. Population reduction was assessed after 24, 72, and 120 hours.

[4] = test system: Cotton aphid (Aphis gossypii, mixed life stages); experiment: Cotton aphid spray test on cotton plants; details: 120 h, aphid mortality determined after 5 days, read-out: mortality in comparison with untreated controls
Experimental: as §1
Cotton plants at the cotyledon stage were infested with aphids prior to treatment by placing a heavily infested leaf from the main aphid colony on top of each cotyledon. Aphids were allowed to transfer overnight to accomplish an infestation of 80-100 aphids per plant and the host leaf was removed. The infested plants were then sprayed by an automated electrostatic plant sprayer equipped with an atomizing spray nozzle. The plants were dried in the sprayer fume hood, removed from the sprayer, and then maintained in a growth room under fluorescent lighting in a 24-hr photoperiod at 25° C. and 20-40% relative humidity. Aphid mortality on the treated plants, relative to mortality on untreated control plants, was determined after 5 days.

[5] = test system: Vetch aphid (Megoura viciae); experiment: Vetch aphid bean leaf disk microtiter plate test; details: foliar, 144 h, 6 days, assessed on the basis of vital, reproduced aphids, read-out: mortality in comparison with untreated controls
Experimental: The active compounds were formulated in 3:1 (vol:vol) water:DMSO with different concentrations of formulated compounds.
Bean leaf disks were placed into microtiterplates filled with 0.8% agar-agar and 2.5 ppm OPUS™. The leaf disks were sprayed with 2.5 μl of the test solution and 5 to 8 adult aphids were placed into the microtiter plates which were then closed and kept at 23±1° C. and 50±5% relative humidity under fluorescent light for 6 days. Mortality was assessed on the basis of vital, reproduced aphids. Aphid mortality and fecundity was then visually assessed.

CCC(C)=NOCC(C)n1ncc(C(=O)N(CC)c2ccnnc2)c1C (single isomer, unassigned) [I-9, N-ethyl-5-methyl-1-[1-methyl-2-[1-methyl-propylideneamino]oxy-ethyl]-N-pyridazin-4-yl-pyrazole-4-carboxamide]
≥ 75%: mortality at 300 ppm [1] | mortality at 300 ppm [2] | mortality at 500 ppm [3] | mortality at 300 ppm [4] | mortality at 2500 ppm [5]
